ChEMBL document CHEMBL1201862, “PubChem BioAssay data set” (2004)
Active and inactive are the calls of the source.

What was measured:
Large T antigen = Large T antigen (Simian virus 40, UniProt P03070); type: functional, Betapolyomavirus macacae;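 note: Confirmatory-stage PubChem screen for compounds that inhibit SV40 T antigen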
[1] = target: Induced myeloid leukemia cell differentiation protein Mcl-1 (Homo sapiens, UniProt Q07820); test: MCL1-BIM BH3 interaction inhibitors, dose response, biochemical, fluorescence polarization, BIM-BH3 peptide, 1536-well (AID 2217)
Induced myeloid leukemia cell differentiation protein Mcl-1, sequence (Q07820 whole entry): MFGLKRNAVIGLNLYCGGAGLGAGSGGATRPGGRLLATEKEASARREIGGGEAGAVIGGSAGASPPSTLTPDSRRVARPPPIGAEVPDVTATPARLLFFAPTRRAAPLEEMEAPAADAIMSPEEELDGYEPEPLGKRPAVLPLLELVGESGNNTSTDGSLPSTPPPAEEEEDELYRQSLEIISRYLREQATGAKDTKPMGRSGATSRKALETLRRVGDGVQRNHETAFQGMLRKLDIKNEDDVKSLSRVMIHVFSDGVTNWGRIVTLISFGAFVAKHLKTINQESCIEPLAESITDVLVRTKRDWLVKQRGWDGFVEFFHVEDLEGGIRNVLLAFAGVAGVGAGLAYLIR

Bcl-2-like protein 1 = Bcl-2-like protein 1 (Homo sapiens, UniProt Q07817); test: BCL-XL inhibitors, dose response, selectivity assay for MCL1 inhibitor project, biochemical, fluorescence polarization, 1536-well (AID 2218)
Bcl-2-like protein 1, sequence (Q07817 whole entry): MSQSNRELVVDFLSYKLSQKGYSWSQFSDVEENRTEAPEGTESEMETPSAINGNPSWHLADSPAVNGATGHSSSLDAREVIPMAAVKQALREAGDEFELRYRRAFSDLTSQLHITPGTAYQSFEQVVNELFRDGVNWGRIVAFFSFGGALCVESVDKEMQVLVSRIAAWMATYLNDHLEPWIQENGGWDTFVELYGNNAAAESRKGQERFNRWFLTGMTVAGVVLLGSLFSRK

[2] = target: Glucose-6-phosphate 1-dehydrogenase (Homo sapiens, UniProt P11413); test: human G6PD enzyme inhibitors, dose response, selectivity assay for P. falciparum G6PD inhibitor project, biochemical, fluorescence (AID 504792); type: functional
Glucose-6-phosphate 1-dehydrogenase, sequence (P11413 whole entry): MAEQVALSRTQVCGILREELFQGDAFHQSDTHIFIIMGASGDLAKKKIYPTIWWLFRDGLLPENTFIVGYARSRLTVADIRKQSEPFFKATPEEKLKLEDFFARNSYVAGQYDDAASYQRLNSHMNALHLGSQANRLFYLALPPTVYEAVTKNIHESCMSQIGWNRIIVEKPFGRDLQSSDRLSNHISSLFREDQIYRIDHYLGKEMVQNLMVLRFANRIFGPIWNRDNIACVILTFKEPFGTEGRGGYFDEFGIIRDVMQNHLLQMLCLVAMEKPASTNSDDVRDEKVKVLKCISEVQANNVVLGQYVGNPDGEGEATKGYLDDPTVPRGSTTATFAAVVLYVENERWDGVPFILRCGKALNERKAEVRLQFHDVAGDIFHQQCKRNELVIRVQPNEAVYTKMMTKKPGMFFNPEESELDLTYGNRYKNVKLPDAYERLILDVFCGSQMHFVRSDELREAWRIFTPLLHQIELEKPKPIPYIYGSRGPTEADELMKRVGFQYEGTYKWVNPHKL

[3] = target: Intestinal-type alkaline phosphatase (Homo sapiens, UniProt P09923); test: activation of human intestinal alkaline phosphatase – biochemical, dose response (AID 488873); type: functional
Intestinal-type alkaline phosphatase (Homo sapiens, UniProt P09923), sequence (P09923 whole entry): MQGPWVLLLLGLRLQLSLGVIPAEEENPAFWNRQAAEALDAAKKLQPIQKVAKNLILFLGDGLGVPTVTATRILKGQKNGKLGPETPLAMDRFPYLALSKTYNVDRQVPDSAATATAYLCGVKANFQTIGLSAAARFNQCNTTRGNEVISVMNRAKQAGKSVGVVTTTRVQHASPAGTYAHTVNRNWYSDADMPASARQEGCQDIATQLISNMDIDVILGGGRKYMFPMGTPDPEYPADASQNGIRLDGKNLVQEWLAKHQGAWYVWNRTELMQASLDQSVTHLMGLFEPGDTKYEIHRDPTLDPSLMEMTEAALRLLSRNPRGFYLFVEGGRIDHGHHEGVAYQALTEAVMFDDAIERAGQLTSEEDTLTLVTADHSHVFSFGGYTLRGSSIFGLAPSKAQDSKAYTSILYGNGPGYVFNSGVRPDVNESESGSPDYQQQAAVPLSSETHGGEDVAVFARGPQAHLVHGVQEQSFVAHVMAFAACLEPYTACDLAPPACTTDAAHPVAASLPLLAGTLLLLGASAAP

[4] = target: Intestinal-type alkaline phosphatase (Mus musculus, UniProt P24822); test: mouse intestinal alkaline phosphatase activators, dose response, biochemical, luminescence, uHTS hits (AID 488783); type: functional
Intestinal-type alkaline phosphatase (Mus musculus, UniProt P24822), sequence (P24822 whole entry): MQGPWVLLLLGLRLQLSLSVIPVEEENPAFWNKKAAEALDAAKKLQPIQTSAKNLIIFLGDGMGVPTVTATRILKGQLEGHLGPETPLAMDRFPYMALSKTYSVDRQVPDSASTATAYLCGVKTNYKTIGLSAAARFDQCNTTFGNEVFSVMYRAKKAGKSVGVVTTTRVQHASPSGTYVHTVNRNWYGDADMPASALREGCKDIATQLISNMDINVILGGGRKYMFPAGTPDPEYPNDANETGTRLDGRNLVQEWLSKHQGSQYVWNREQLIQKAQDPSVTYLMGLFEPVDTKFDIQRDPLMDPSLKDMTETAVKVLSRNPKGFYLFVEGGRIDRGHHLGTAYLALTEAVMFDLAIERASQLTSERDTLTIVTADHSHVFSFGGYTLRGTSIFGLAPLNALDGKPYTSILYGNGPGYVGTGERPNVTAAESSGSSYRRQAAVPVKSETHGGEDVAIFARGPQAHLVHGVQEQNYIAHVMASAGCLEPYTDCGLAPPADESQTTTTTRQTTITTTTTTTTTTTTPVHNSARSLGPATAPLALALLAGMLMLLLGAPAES

[5] = target: T1, Alkaline phosphatase, tissue-nonspecific isozyme (Homo sapiens, UniProt P05186); test: TNAP enzyme activators, dose response, selectivity assay for mouse IAP activator project, biochemical, TNAP isozyme, mouse IAP uHTS hits (AID 488880); type: functional
T1 sequence (P05186 whole entry): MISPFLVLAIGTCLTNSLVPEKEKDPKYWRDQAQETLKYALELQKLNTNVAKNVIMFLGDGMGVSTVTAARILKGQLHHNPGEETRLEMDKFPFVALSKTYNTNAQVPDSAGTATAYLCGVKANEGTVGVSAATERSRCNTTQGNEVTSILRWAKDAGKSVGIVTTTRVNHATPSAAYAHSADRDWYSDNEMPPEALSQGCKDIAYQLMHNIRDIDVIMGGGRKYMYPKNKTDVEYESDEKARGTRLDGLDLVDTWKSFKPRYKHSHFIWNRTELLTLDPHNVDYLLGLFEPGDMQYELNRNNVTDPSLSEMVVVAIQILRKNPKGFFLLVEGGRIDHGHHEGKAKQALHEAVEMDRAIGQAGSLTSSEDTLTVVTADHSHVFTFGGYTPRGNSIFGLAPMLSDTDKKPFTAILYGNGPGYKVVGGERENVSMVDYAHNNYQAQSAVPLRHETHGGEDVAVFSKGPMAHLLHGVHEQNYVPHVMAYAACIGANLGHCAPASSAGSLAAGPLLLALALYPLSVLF

[6] = target: Heat shock protein HSP 90-alpha (Homo sapiens, UniProt P07900); type: functional, organism-based
Vero = test: cells; type: functional; settings: Chlorocebus sabaeus
[7] = target: Sphingosine 1-phosphate receptor 1 (Homo sapiens, UniProt P21453); test: Fluorescence-based counterscreen assay for S1P4 agonists: Cell-based dose response high throughput screening assay to identify agonists of the Sphingosine 1-Phosphate Receptor 1 (S1P1). [Related pubchem assays (depositor defined):AID1509, AID1523, AID1801, AID463107, AID463118, AID463119, AID463122, AID463123, AID463129, AID463225, AID504400, AID504460]; type: functional
Sphingosine 1-phosphate receptor 1, sequence (P21453 whole entry, the tested form may be a part): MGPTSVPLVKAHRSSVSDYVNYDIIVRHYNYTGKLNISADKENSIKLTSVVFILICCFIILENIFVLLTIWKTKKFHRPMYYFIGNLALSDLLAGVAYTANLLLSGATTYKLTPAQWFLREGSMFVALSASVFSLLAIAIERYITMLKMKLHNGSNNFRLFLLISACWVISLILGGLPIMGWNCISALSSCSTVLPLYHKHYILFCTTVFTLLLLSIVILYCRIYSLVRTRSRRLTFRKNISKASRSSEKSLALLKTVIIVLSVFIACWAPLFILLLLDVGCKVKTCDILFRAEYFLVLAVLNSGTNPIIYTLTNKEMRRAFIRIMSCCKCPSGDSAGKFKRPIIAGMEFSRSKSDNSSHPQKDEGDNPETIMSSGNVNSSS

[8] = target: T2, RNA-binding protein pos-1 (Caenorhabditis elegans, UniProt G5EF15); test: inhibitors of POS-1/mex-3 RNA binding, dose response, biochemical, fluorescence polarization (AID 1964);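 note: purified POS-1 fused to maltose binding protein made in E. coli; potency of compounds blocking POS-1 binding to fluorescent RNA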
T2 sequence (G5EF15 whole entry): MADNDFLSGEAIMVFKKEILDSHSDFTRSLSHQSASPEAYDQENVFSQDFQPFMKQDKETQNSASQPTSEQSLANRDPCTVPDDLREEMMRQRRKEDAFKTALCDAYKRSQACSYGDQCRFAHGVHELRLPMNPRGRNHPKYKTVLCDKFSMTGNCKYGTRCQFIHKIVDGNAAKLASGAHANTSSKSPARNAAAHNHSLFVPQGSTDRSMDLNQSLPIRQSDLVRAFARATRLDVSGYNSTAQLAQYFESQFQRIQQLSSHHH

[9] = Counterscreen for IDE inhibitors: Luminescence-based cell-based high throughput dose response assay to identify compounds that are cytotoxic to HEK cells. [Related pubchem assays: 434962 (Primary screen (IDE inhibitors in singlicate)), 449730 (Counterscreen (Cytotoxicity in triplicate)), 435028 (Confirmation (IDE inhibitors in triplicate)) …; type: functional; settings: HEK293
[10] = target: T3, Zinc finger protein mex-5 (Caenorhabditis elegans, UniProt Q9XUB2); test: MEX-5/TCR-2 RNA interaction inhibitors, dose response, biochemical, C. elegans, fluorescence polarization (AID 1960)
T3 sequence (Q9XUB2 whole entry): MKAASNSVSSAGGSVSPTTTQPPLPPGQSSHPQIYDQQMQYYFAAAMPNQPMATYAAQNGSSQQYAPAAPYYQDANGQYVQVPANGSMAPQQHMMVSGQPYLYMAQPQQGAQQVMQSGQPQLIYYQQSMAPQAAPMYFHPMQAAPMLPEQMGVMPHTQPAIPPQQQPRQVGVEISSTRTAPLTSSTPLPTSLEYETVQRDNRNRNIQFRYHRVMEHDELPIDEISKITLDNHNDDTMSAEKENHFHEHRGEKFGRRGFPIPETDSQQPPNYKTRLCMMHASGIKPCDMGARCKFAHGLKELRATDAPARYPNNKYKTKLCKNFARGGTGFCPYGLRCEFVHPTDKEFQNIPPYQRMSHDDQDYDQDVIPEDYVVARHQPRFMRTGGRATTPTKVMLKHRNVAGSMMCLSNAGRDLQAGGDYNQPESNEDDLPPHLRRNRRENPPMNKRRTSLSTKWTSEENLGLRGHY

[11] = target: T4, Sphingosine 1-phosphate receptor 4 (Homo sapiens, UniProt O95977); test: Fluorescence dose response cell-based high throughput screening assay for agonists of the Sphingosine 1-Phosphate Receptor 4 (S1P4). [Related pubchem assays: 1509 (Primary screen.), 1523 (Confirmation screen in triplicates.)]; type: functional
T4 sequence (O95977 whole entry): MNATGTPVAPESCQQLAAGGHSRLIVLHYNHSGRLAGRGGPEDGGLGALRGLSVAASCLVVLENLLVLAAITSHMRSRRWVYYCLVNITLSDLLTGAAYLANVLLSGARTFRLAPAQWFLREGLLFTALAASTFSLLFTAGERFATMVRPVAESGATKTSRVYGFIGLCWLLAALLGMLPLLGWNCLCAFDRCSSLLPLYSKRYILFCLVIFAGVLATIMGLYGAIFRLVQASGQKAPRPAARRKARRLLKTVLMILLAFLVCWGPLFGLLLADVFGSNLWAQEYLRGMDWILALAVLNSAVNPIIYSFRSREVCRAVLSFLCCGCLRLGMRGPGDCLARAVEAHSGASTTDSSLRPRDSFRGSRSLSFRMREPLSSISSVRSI

Insulin-degrading enzyme = target: T5, Insulin-degrading enzyme (Homo sapiens, UniProt P14735); test: Dose Response: Fluorescence polarization-based cell-based high throughput dose response assay for inhibitors of insulin-degrading enzyme (IDE). [Related pubchem assays: 434962 (Primary screen (IDE inhibitors in singlicate)), 449730 (Counterscreen (Cytotoxicity in triplicate)), 435028 (Confirmation (IDE inhibitors in triplicate)), 434984 (Summary …; type: functional
T5 sequence (P14735 whole entry): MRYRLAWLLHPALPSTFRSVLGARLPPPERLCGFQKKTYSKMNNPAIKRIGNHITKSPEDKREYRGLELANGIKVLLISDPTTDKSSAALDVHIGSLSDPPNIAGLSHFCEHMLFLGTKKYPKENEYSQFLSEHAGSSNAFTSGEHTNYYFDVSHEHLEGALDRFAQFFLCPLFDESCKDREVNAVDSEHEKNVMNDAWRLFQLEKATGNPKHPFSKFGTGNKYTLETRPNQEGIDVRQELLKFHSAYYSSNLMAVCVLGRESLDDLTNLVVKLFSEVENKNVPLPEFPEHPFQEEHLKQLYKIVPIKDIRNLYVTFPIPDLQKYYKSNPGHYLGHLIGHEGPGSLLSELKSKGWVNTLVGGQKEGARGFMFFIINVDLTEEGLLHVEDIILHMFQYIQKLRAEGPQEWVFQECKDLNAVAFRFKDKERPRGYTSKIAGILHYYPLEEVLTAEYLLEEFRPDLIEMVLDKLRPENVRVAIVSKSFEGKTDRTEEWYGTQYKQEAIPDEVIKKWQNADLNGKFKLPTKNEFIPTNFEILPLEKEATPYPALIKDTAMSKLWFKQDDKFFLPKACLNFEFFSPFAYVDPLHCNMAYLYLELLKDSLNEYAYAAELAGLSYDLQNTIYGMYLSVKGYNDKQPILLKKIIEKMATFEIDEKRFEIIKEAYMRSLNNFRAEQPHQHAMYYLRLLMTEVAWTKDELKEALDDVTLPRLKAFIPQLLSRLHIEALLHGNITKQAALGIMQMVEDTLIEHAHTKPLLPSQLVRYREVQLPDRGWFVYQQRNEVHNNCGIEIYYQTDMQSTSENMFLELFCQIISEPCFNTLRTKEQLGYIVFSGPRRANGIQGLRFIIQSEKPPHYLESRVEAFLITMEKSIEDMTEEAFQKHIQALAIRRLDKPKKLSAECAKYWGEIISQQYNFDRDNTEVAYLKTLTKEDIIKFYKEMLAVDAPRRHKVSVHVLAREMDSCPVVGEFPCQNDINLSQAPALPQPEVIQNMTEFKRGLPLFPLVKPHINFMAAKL

CAAX prenyl protease 2 = CAAX prenyl protease 2 (Homo sapiens, UniProt Q9Y256); test: human Rce1 protease inhibitors, dose response, biochemical, yeast membranes, quenched-peptide fluorescence, cherry-pick (AID 588849)
CAAX prenyl protease 2, sequence (Q9Y256 whole entry): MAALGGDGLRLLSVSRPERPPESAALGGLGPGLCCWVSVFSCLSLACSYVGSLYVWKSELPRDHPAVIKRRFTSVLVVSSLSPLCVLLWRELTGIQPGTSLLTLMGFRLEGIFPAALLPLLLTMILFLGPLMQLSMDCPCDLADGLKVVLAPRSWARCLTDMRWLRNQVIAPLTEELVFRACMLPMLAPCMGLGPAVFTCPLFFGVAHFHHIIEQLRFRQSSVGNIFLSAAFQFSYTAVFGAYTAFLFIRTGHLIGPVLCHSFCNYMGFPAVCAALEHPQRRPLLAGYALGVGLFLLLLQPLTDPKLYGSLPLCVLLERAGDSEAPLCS

[12] = target: Voltage-dependent T-type calcium channel subunit alpha-1H (Homo sapiens, UniProt O95180); test: Cav3.2 T-type channel inhibitors, synthesized analogs, SAR follow-up, cell-based, synthetic library set 2, HEK293 HH8, Fluo-4 (AID 493023); type: functional
[13] = target: Kappa-type opioid receptor (Homo sapiens, UniProt P41145); test: SAR analysis of small molecule agonists of the kappa opioid receptor via a luminescent beta-arrestin assay - Set 3. [Related pubchem assays (depositor defined):AID1777, AID1785, AID1786, AID1966, AID2133, AID2136, AID2284, AID2500]; type: functional
Kappa-type opioid receptor, sequence (P41145 whole entry): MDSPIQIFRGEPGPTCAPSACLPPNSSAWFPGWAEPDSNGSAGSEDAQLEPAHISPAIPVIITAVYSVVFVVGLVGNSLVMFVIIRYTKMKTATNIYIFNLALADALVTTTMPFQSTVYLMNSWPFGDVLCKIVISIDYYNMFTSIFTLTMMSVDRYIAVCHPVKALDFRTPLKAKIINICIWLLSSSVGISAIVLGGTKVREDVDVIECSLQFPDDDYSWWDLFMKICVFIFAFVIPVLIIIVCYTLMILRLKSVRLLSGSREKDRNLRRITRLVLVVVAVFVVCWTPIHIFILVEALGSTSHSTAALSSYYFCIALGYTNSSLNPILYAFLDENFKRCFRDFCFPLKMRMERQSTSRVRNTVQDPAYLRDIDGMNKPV

Large T antigen, sequence (P03070 whole entry): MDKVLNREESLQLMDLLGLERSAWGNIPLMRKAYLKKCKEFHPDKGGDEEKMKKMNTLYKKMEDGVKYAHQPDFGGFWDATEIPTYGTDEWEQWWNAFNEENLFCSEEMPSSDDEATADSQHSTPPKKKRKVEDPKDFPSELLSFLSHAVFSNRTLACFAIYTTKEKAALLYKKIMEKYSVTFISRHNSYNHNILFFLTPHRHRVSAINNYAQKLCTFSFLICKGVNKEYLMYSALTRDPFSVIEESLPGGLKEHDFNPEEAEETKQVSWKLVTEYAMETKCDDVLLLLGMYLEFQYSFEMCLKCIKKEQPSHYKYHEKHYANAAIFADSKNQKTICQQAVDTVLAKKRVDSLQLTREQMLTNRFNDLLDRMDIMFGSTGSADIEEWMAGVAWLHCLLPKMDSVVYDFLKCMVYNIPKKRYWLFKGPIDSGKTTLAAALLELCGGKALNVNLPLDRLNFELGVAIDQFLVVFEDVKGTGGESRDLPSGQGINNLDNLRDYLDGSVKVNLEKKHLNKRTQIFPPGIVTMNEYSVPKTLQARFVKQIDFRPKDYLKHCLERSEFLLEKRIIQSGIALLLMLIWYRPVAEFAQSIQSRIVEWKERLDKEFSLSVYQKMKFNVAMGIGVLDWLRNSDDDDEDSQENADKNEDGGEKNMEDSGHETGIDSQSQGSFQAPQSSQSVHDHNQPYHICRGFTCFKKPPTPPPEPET

O=C1NC(=S)NC(=O)C1=Cc1ccc(Br)s1
IC50 (Large T antigen): 64.5 µM (active)
IC50 [1]: > 12.1 µM (not active)
IC50 (Bcl-2-like protein 1): > 109 µM (not active)
IC50 [2]: 36.4 µM (inactive)
EC50 [3]: 76.8 µM (active)
EC50 [4]: 59.7 µM (active)
EC50 [5]: 61.6 µM (active)
AC50 [6]: 25.6 µM (active)
CC50 (Vero): 21.4 µM (active)

COc1ccc(C2CC(c3cccs3)=NN2c2ccc(C=O)cc2)cc1 (stereo not drawn)
EC50 [7]: 12.5 µM (inactive)
EC50 [8]: 18.3 µM (active)
IC50 [9]: 41.2 µM (not active)
EC50 [10]: 24.6 µM (active)
EC50 [11]: 8.63 µM (active)
IC50 (Insulin-degrading enzyme): > 55.9 µM (not active)
AC50 (CAAX prenyl protease 2): 8.53 µM (active)

CC(C)(C)CCN1CCC[C@@H](NC(=O)c2ccc(Cl)cc2Cl)C1
EC50 [12]: 10 µM (active)

Brc1ccc(CSc2nnc(-c3ccccn3)n2Cc2cccnc2)cc1
EC50 [13]: 8.51 µM (active)
